Assay results as given in patent US12258389B2, “Methods and compositions for inhibition of EGF/EGFR pathway in combination with tyrosine kinase inhibitors” (In3Bio Ltd., priority 2015, dated 2025).
Like-named read-outs stand apart in the source and are kept apart here.

Columns and labels:
PC9 cells = test: Sensitivity of parental PC9 cells to TKIs; type: cell-based, human
Excerpt: (§1) In the conduct of this study PC9-derived cell lines that are resistant to TKIs were utilized. […] They represent a model for the EGFR Mutated segment of the NSCLC patient population receiving first-line TKI treatment.
(§2) As described above, the PC9 cell line carries a 15 bp deletion in exon 19 of EGFR, making this cell line sensitive to TKI's. It represents a model for the EGFR Mutated segment of the NSCLC patient population receiving TKI treatment. As a part of this effort, PC9-derived cell lines resistant to TKIs were developed.

p-Akt [1] = test: Western blot, phosphorylated Akt normalised to total Akt, PC9 cells; type: cell-based, human
Protocol: (§3) Experiment 1: In a typical standard experiment, five T-75 flasks of the cell line under study were cultured to approximately 70% confluence, washed twice with PBS and grown o/n in serum-free medium. The serum-starved cells were then washed again and treated as follows:
(§4) Treatment was for about 15 minutes.
(§5) Experiment 2: In a second experiment anti-EGF was tested only at 1 to 2 dilution. […] Treatment was prolonged to about 2 hours in this experiment.
(§6) Both EGF and anti-EGF antibodies, which used in this project were derived from an immunization study in monkeys that received 4 immunizations of the rEGF-rP64k conjugate CIMAvax-EGF vaccine formulated with Montanide adjuvant. The vaccine and resulting anti-EGF antibodies were provided by Bioven (Europe) Ltd, Cruikshank Building North, Aberdeen Biotechnology, Craibstone Aberdeen, U.K. Scotland. Antibodies for Western blotting were purchased from Santa Cruz Biotechnologies (Palo Alto, CA).
(§7) Experiment 3: In a third experiment anti-EGF was tested only at 1 to 2 dilution. […] Treatment was prolonged to about 2 hours in this experiment. […] Both EGF and anti-EGF were provided by Bioven. Antibodies for Western blotting were purchased from Santa Cruz Biotechnologies (Palo Alto, CA).
(§8) Subsequently, three kind of experiments were performed:
(§9) C. Non-Standard Conditions: In experiments “under non-standard conditions”, PC9 (4 flasks) cells were not submitted to serum starvation and activation with fetal bovine serum instead of human EGF was employed. They were washed with PBS (×2), drugs were added in medium containing 10% FBS and incubated for 2 hours.

pSTAT-3 [2] = test: Western blot, phosphorylated STAT3, PC9-GR4 (T790M positive) cells; type: cell-based, human; details: AZD9291 0.2 μM, Ab1, Ctrl = 100
Excerpt: as §2
(§10) In 5-day experiments, PC9 cells were not submitted to serum starvation but cultured with human serum.

p-EGFR [3] = test: Western blot, phosphorylated EGFR, PC9-GR4 (T790M positive) cells; type: cell-based, human; details: AZD9291 0.2 μM, Ab1, Ctrl = 100
Excerpt: as §2, §10

p-ERK1/2 [4] = test: Western blot, phosphorylated ERK1/2, PC9-GR4 (T790M positive) cells; type: cell-based, human; details: AZD9291 0.2 μM, Ab1, Ctrl = 100
Excerpt: as §2, §10

p-ERK1/2 [5] = test: Western blot, phosphorylated ERK1/2 normalised to total ERK1/2, PC9 cells; type: cell-based, human
Protocol: as §3, §4, §5, §6, §7, §8, §9

p-EGFR [6] = test: Western blot, phosphorylated EGFR normalised to total EGFR, PC9 cells; type: cell-based, human
Protocol: as §3, §4, §5, §6, §7, §8
C. […]

PC9-GR1 and GR4 = test: Sensitivity of T790M PC9-derived lines; type: cell-based, human
Excerpt: as §1, with “treatment. […]. These two cell lines (PC9-GR1 and GR4) are sensitive to the new generation EGFR TKI developed by Astra Zeneca (AZD9291) that can also bind to the T790M EGFR mutated protein.” for “treatment.”
as §2, with “developed. […] […]. These two cell lines (PC9-GR1 and GR4) are sensitive to the new generation EGFR TKI developed by Astra Zeneca (AZD9291) that can also bind to the T790M EGFR mutated protein.” for “developed.”

pSTAT-3 [7] = test: Western blot, phosphorylated STAT3 normalised to total STAT3, PC9 cells; type: cell-based, human
Protocol: as §3, §4, §5, §6, §7, §8, §9

p-Akt [8] = test: Western blot, phosphorylated Akt, PC9-GR4 (T790M positive) cells; type: cell-based, human; details: AZD9291 0.2 μM, Ab1, Ctrl = 100
Excerpt: as §2, §10

PC9-ER and GR1 to GR5 = test: cells; type: cell-based; details: Homo sapiens, PC-9/ER; PC9-ER and GR1 to GR5 resistant lines
Excerpt: as §1, §2

pYAP = test: Western blot, phospho-YAP, PC9 cells; type: cell-based, human; details: PC9, 24 h, gefitinib 0.5 μM, Ab1; Ctrl = 100
Protocol: as §10
(§11) A preliminary analysis was performed to test some of them: Notch3 cleaved (active form of Notch3), phosphor-YAP, Bmi1 and Hes1 (related to stem cells) and AXL (related to EMT transition). Also, PARP was investigated to determine if the antibodies induce apoptosis. Extracts of the PC9 cell line obtained in previous experiments were used. […] A not-so-significant down-regulation of Bmi1 was also observed.

Notch3 = test: Western blot, Notch3, PC9 cells; type: cell-based, human; details: PC9, 24 h, gefitinib 0.5 μM, Ab1; Ctrl = 100
Protocol: as §10, §11

HES1 = test: Western blot, Hes1 level, PC9 cells; type: cell-based, human; details: PC9, 24 h, gefitinib 0.5 μM, Ab1; Ctrl = 100
Protocol: as §10, §11

Notch3 truncated = test: Western blot, truncated (cleaved) Notch3, PC9 cells; type: cell-based, human; details: PC9, 24 h, gefitinib 0.5 μM, Ab1; Ctrl = 100
Protocol: as §10, §11

AXL = test: Western blot, AXL, PC9 cells; type: cell-based, human; details: PC9, 24 h, gefitinib 0.5 μM, Ab1; Ctrl = 100
Protocol: as §10, §11

Bmi1 = test: Western blot, Bmi1 level, PC9 cells; type: cell-based, human; details: PC9, 24 h, gefitinib 0.5 μM, Ab1; Ctrl = 100
Protocol: as §10, §11

PARP cleaved = test: Western blot, cleaved (truncated) PARP, PC9 cells; type: cell-based, human; details: PC9, 24 h, gefitinib 0.5 μM, Ab1 (FIG. 21)
Protocol: as §10, §11

PARP = test: Western blot, total PARP, PC9 cells; type: cell-based, human; details: PC9, 24 h, gefitinib 0.5 μM, Ab1; Ctrl = 100
Protocol: as §10, §11

[9] = PC9, 2 h, AZD9291 0.2 μM, Ab1, Ctrl = 100
[10] = PC9, 0% FBS, EGF-induced, 2 h, erlotinib 1 μM, Ab 1/2 dilution, Control = 100
[11] = PC9, 2 h, erlotinib 1 μM, anti-EGF, nonstandard conditions and serum starvation (FIG. 13, 14)
[12] = PC9, 24 h serum starvation and drug treatment, gefitinib 0.5 μM, Ab 1/2, Control = 100
[13] = PC9, serum-starved, EGF, 15 min, gefitinib 40 nM, antibody 1/20 to 1/5 (FIG. 6)

C=CC(=O)Nc1cc(Nc2nccc(-c3cn(C)c4ccccc34)n2)c(OC)cc1N(C)CCN(C)C [AZD9291]
IC50 (PC9 cells): in the nM range | pAkt (p-Akt [1]; [9]): 2.9 | pSTAT3 (pSTAT-3 [2]; PC9-GR4, 2 h): 60 | STAT3 (pSTAT-3 [2]; PC9-GR4, 24 h): 847.5 | pEGFR (p-EGFR [3]; PC9-GR4, 2 h): 2.5 | EGFR (p-EGFR [3]; PC9-GR4, 24 h): 138.6 | pErk ½ (p-ERK1/2 [4]; PC9-GR4, 2 h): 53.6 | Erk ½ (p-ERK1/2 [4]; PC9-GR4, 24 h): 20.5 | pErk ½ (p-ERK1/2 [5]; [9]): 3.7 | pEGFR (p-EGFR [6]; [9]): 76.3 | sensitivity of cell lines (PC9-GR1 and GR4): sensitive | pSTAT3 (pSTAT-3 [7]; [9]): 146.6 | pAkt (p-Akt [8]; PC9-GR4, 2 h): 42.7 | Akt (p-Akt [8]; PC9-GR4, 24 h): 26.8

C#Cc1cccc(Nc2ncnc3cc(OCCOC)c(OCCOC)cc23)c1 [Erlotinib, N-(3-ethynylphenyl)-6,7-bis(2-methoxyethoxy)-4-quinazolinamine]
Akt (p-Akt [1]; [10]): 0 | ERK (p-ERK1/2 [5]; [10]): 0 | effect on Erk activation (p-ERK1/2 [5]; [11]): inactivated | EGFR (p-EGFR [6]; [10]): 14.3 | STAT-3 (pSTAT-3 [7]; [10]): 130 | effect on STAT3 activation (pSTAT-3 [7]; [11]): activated | IC50 (PC9-ER and GR1 to GR5): 5 to 10 µM

COc1cc2ncnc(Nc3ccc(F)c(Cl)c3)c2cc1OCCCN1CCOCC1 [Gefitinib]
p YAP (Ser 397) (pYAP): 137.6 | Notch3 (Notch3): 120.8 | Hes1 (HES1): 86.5 | pAkt (p-Akt [1]; [12]): 72.6 | effect on Akt phosphorylation (p-Akt [1]; [13]): inhibited | Notch3 truncated (Notch3 truncated): 98.9 | AXL (AXL): 135.4 | effect on Erk activation (p-ERK1/2 [5]): inactivated | effect on Erk phosphorylation (p-ERK1/2 [5]): inhibited | pERK (p-ERK1/2 [5]): 8.1 | Bmi1 (Bmi1): 100.1 | PARP cleavage (PARP cleaved): able to induce it | PARP total (PARP): 110 | pSTAT3 (pSTAT-3 [7]; [12]): 569.2 | effect on STAT-3 activation (pSTAT-3 [7]; PC9, nonstandard conditions (not serum-starved, 10% FBS, no EGF), 2 h, gefitinib 0.5 μM, anti-EGF 1/2 (FIG. 8)): activated | effect on STAT3 activation (pSTAT-3 [7]; PC9, serum starvation, EGF induction, 2 h, gefitinib 0.5 μM, anti-EGF 1/2 (FIG. 2, FIG. 9)): activated | effect on STAT3 phosphorylation (pSTAT-3 [7]; [13]): activated

COc1cc2c(Oc3ccc(NC(=O)C4(C(=O)Nc5ccc(F)cc5)CC4)cc3F)ccnc2cc1OCCCN1CCOCC1 [foretinib]
IC50 (PC9 cells): in the nM range
